# Experiments:
# [1] = target: T1, EGFR^wt-TK (Homo sapiens, UniProt P00533); test: In vitro EGFR^wt-TK assay (ELISA with recombinant EGFR); assay type: biochemical; conditions: mean ± SD of three replicates; for inhibition at 1 µM: read-out: EGFR^wt-TK inhibition rate (%, 1 μM)
# T1 construct: purchased Sino Biology Inc
# Experimental: Recombinant EGFR was purchased from Sino Biology Inc. Antiphosphotyrosine mouse mAb was purchased from PTM Bio. The effects of compounds on the activity of wild type EGFR tyrosine kinase were determined by enzyme-linked immunosorbent assays (ELISAs) with recombinant EGFR according to reported methods.
# [2] = test system: A549 cells; test: MTT assay, A549; conditions: Homo sapiens; for IC50: A549, read-out: IC50 (μM) A549; for inhibition at 10 µM: A549, read-out: Inhibition rate (%, 10 μM) A549
# [3] = test system: SMMC-7721 cells; test: MTT assay, SMMC-7721; conditions: Homo sapiens; for IC50: SMMC-7721, read-out: IC50 (μM) SMMC-7721; for inhibition at 10 µM: SMMC-7721, read-out: Inhibition rate (%, 10 μM) SMMC-7721
# [4] = test system: PC-3 cells; test: MTT assay, PC-3; conditions: Homo sapiens; for IC50: PC-3, read-out: IC50 (μM) PC-3; for inhibition at 10 µM: PC-3, read-out: Inhibition rate (%, 10 μM) PC-3
# [5] = test system: A549 cells; test: Cell cycle analysis, PI flow cytometry; assay type: cell-based, human; conditions: for Percentage of cells in G0/G1 / Percentage of cells in G2/M / Percentage of cells in S: 48 h
# [6] = test system: A549 cells; test: Cell apoptosis analysis, Annexin V-FITC/PI flow cytometry; assay type: cell-based, human; conditions: A549, 5, 10, 20 μM, 48 h
# [7] = test system: EGFR; conditions: Figure 2; read-out: Reported EGFR inhibitors: IC50; cited from earlier work
# T1 sequence (P00533 25-1210): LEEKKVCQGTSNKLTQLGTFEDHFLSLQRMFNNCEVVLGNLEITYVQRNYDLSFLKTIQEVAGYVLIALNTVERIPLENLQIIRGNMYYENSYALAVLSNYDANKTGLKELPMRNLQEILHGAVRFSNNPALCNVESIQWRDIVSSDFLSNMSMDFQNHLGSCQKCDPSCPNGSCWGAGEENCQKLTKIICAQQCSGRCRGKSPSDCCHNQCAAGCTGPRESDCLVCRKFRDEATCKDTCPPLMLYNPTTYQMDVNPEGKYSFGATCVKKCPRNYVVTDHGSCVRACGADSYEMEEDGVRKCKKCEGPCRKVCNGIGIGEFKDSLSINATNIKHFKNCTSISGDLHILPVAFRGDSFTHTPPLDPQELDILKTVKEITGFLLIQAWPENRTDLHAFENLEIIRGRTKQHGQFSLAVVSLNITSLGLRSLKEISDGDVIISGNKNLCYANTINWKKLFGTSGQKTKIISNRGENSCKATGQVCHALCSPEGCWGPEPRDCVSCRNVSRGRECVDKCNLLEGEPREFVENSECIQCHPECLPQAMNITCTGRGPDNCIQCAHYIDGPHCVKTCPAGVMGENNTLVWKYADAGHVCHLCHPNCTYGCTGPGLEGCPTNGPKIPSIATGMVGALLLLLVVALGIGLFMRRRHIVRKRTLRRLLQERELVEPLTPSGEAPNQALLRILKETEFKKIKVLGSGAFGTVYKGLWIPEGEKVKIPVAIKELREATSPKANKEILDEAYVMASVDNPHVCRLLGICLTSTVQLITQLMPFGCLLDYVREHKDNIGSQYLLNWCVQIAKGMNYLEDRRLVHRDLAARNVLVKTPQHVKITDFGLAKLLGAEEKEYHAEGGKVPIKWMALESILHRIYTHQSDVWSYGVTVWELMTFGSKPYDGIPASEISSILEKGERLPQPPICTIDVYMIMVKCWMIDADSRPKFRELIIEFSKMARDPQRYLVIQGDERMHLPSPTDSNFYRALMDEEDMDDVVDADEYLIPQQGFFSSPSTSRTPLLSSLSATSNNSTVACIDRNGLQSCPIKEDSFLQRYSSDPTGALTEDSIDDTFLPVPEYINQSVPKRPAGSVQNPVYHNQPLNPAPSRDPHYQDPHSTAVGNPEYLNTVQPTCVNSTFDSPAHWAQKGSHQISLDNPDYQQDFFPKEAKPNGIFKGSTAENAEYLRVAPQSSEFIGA
smiles,measurement,setting,value
"O=c1[nH]cc(F)c(=O)[nH]1 [5-Fluorouracil, reference compound]",inhibition at 1 µM,[1],63.4 ± 1.69%
same,IC50,[1],0.14 ± 0.011 µM
same,IC50,[2],1.53 ± 0.72 µM
same,inhibition at 10 µM,[2],40.4 ± 1.15%
same,IC50,[3],11.4 ± 1.95 µM
same,inhibition at 10 µM,[3],29.1 ± 2.75%
same,IC50,[4],22.5 ± 0.74 µM
same,inhibition at 10 µM,[4],29.3 ± 1.24%
"Cn1c(COc2ccc(/C=N/c3ccccc3)cc2)nc2ccccc2c1=O [5a, (E)-3-methyl-2-((4-((phenylimino)methyl)phenoxy)methyl)quinazolin-4(3H)-one]",melting point,,150 to 152 °C
same,inhibition at 1 µM,[1],1.91 ± 0.91%
same,inhibition at 10 µM,[2],15.4 ± 1.52%
same,inhibition at 10 µM,[3],15.1 ± 5.91%
same,inhibition at 10 µM,[4],7.36 ± 2.38%
"Cc1ccccc1/N=C/c1ccc(OCc2nc3ccccc3c(=O)n2C)cc1 [5b, (E)-3-methyl-2-((4-((o-tolylimino)methyl)phenoxy)methyl)quinazolin-4(3H)-one]",melting point,,162 to 164 °C
same,inhibition at 1 µM,[1],2.57 ± 1.25%
same,inhibition at 10 µM,[2],14.5 ± 4.09%
same,inhibition at 10 µM,[3],24.3 ± 1.7%
same,inhibition at 10 µM,[4],23.9 ± 8.59%
"Cc1ccc(/N=C/c2ccc(OCc3nc4ccccc4c(=O)n3C)cc2)cc1 [5c, (E)-3-methyl-2-((4-((p-tolylimino)methyl)phenoxy)methyl)quinazolin-4(3H)-one]",melting point,,182 to 184 °C
same,inhibition at 1 µM,[1],50.8 ± 3.29%
same,inhibition at 10 µM,[2],12.1 ± 2%
same,inhibition at 10 µM,[3],31.8 ± 9.91%
same,inhibition at 10 µM,[4],7.46 ± 0.52%
"COc1ccccc1/N=C/c1ccc(OCc2nc3ccccc3c(=O)n2C)cc1 [5d, (E)-2-((4-(((2-methoxyphenyl)imino)methyl)phenoxy)methyl)-3-methylquinazolin-4(3H)-one]",melting point,,141 to 143 °C
same,inhibition at 1 µM,[1],38.7 ± 1.83%
same,inhibition at 10 µM,[2],20.8 ± 4.81%
same,inhibition at 10 µM,[3],2.78 ± 4.23%
same,inhibition at 10 µM,[4],38.2 ± 1.4%
"COc1ccc(/N=C/c2ccc(OCc3nc4ccccc4c(=O)n3C)cc2)cc1 [5e, (E)-2-((4-(((4-methoxyphenyl)imino)methyl)phenoxy)methyl)-3-methylquinazolin-4(3H)-one]",melting point,,180 to 182 °C
same,inhibition at 1 µM,[1],53.6 ± 1.25%
same,inhibition at 10 µM,[2],25.9 ± 7.46%
same,inhibition at 10 µM,[3],20.1 ± 9.11%
same,inhibition at 10 µM,[4],40.2 ± 3.57%
"Cn1c(COc2ccc(/C=N/c3ccccc3F)cc2)nc2ccccc2c1=O [5f, (E)-2-((4-(((2-fluorophenyl)imino)methyl)phenoxy)methyl)-3-methylquinazolin-4 (3H)-one]",melting point,,143 to 145 °C
same,inhibition at 1 µM,[1],1.31 ± 3.64%
same,inhibition at 10 µM,[2],16.3 ± 1.43%
same,inhibition at 10 µM,[3],2.65 ± 1.81%
same,inhibition at 10 µM,[4],5.46 ± 0.28%
"Cn1c(COc2ccc(/C=N/c3cccc(F)c3)cc2)nc2ccccc2c1=O [5g, (E)-2-((4-(((3-fluorophenyl)imino)methyl)phenoxy)methyl)-3-methylquinazolin-4(3H)-one]",melting point,,168 to 170 °C
same,inhibition at 1 µM,[1],65 ± 1.51%
same,IC50,[1],0.047 ± 0.004 µM
same,IC50,[2],19.7 ± 2.34 µM
same,inhibition at 10 µM,[2],15.6 ± 2.56%
same,IC50,[3],35.9 ± 5.85 µM
same,inhibition at 10 µM,[3],35.6 ± 1.27%
same,IC50,[4],30.1 ± 1.86 µM
same,inhibition at 10 µM,[4],4.76 ± 0.51%
"Cn1c(COc2ccc(/C=N/c3ccc(F)cc3)cc2)nc2ccccc2c1=O [5h, (E)-2-((4-(((4-fluorophenyl)imino)methyl)phenoxy)methyl)-3-methylquinazolin-4(3H)-one]",melting point,,200 to 202 °C
same,inhibition at 1 µM,[1],56.2 ± 2.16%
same,inhibition at 10 µM,[2],14.8 ± 5.06%
same,inhibition at 10 µM,[3],22.9 ± 1.66%
same,inhibition at 10 µM,[4],14.8 ± 2.3%
"Cn1c(COc2ccc(/C=N/c3cccc(Cl)c3)cc2)nc2ccccc2c1=O [5i, (E)-2-((4-(((3-chlorophenyl)imino)methyl)phenoxy)methyl)-3-methylquinazolin-4(3H)-one]",melting point,,179 to 181 °C
same,inhibition at 1 µM,[1],1.04 ± 0.91%
same,inhibition at 10 µM,[2],23.3 ± 7.52%
same,inhibition at 10 µM,[3],13.1 ± 2.92%
same,inhibition at 10 µM,[4],9.6 ± 2.69%
"Cn1c(COc2ccc(/C=N/c3cccc(Br)c3)cc2)nc2ccccc2c1=O [5j, (E)-2-((4-(((3-bromophenyl)imino)methyl)phenoxy)methyl)-3-methylquinazolin-4(3H)-one]",melting point,,176 to 178 °C
same,inhibition at 1 µM,[1],53.3 ± 1.58%
same,inhibition at 10 µM,[2],18 ± 6.69%
same,inhibition at 10 µM,[3],18.6 ± 1.51%
same,inhibition at 10 µM,[4],17.9 ± 6.12%
"Cn1c(COc2ccc(/C=N/c3ccc(F)c(F)c3)cc2)nc2ccccc2c1=O [5k, (E)-2-((4-(((3,4-difluorophenyl)imino)methyl)phenoxy)methyl)-3-methylquinazolin-4(3H)-one]",melting point,,152 to 154 °C
same,inhibition at 1 µM,[1],63.4 ± 1.83%
same,IC50,[1],0.01 ± 0.001 µM
same,IC50,[2],12.3 ± 4.12 µM
same,inhibition at 10 µM,[2],27 ± 1.63%
same,IC50,[3],15.7 ± 1.64 µM
same,inhibition at 10 µM,[3],34.9 ± 4.72%
same,Percentage of cells in G0/G1,"[5]; A549, 5 μM",61.23%
same,Percentage of cells in G2/M,"[5]; A549, 5 μM",25.31%
same,Percentage of cells in S,"[5]; A549, 5 μM",13.46%
same,Percentage of cells in G0/G1,"[5]; A549, 10 μM",62.42%
same,Percentage of cells in G2/M,"[5]; A549, 10 μM",23.10%
same,Percentage of cells in S,"[5]; A549, 10 μM",14.48%
same,Cell cycle arrest of A549 cells,"[5]; A549, 48 h",arrested in the G2/M phase
same,IC50,[4],17.1 ± 3.61 µM
same,inhibition at 10 µM,[4],57.5 ± 2.77%
same,Induction of apoptosis in A549 cells,[6],induces cellular apoptosis in a concentration-dependent way
"Cn1c(COc2ccc(/C=N/c3cc(F)cc(F)c3)cc2)nc2ccccc2c1=O [5l, (E)-2-((4-(((3,5-difluorophenyl)imino)methyl)phenoxy)methyl)-3-methylquinazolin-4(3H)-one]",melting point,,220 to 221 °C
same,inhibition at 1 µM,[1],61.9 ± 1.51%
same,IC50,[1],0.54 ± 0.031 µM
same,IC50,[2],7.22 ± 3.51 µM
same,inhibition at 10 µM,[2],31.2 ± 2.49%
same,IC50,[3],6.04 ± 0.55 µM
same,inhibition at 10 µM,[3],41 ± 2.63%
same,IC50,[4],13.3 ± 1.12 µM
same,inhibition at 10 µM,[4],54.3 ± 7.59%
"Cn1c(COc2ccc(/C=N/c3c(F)cccc3F)cc2)nc2ccccc2c1=O [5m, (E)-2-((4-(((2,6-difluorophenyl)imino)methyl)phenoxy)methyl)-3-methylquinazolin-4(3H)-one]",melting point,,181 to 183 °C
same,inhibition at 1 µM,[1],25.8 ± 1.92%
same,inhibition at 10 µM,[2],15.2 ± 3.61%
same,inhibition at 10 µM,[3],15.1 ± 5.79%
same,inhibition at 10 µM,[4],26.8 ± 0.59%
"Cn1c(COc2ccc(/C=N/c3ccc(F)cc3F)cc2)nc2ccccc2c1=O [5n, (E)-2-((4-(((2,4-difluorophenyl)imino)methyl)phenoxy)methyl)-3-methylquinazolin-4(3H)-one]",melting point,,181 to 183 °C
same,inhibition at 1 µM,[1],48.4 ± 0.35%
same,inhibition at 10 µM,[2],33.3 ± 3.63%
same,inhibition at 10 µM,[3],11.5 ± 2.87%
same,inhibition at 10 µM,[4],25.8 ± 4.84%
"Cn1c(COc2ccc(/C=N/c3ccc(F)c(Cl)c3)cc2)nc2ccccc2c1=O [5o, (E)-2-((4-(((3-chloro-4-fluorophenyl)imino)methyl)phenoxy)methyl)-3-methyl quinazolin-4(3H)-one]",melting point,,188 to 189 °C
same,inhibition at 1 µM,[1],16.7 ± 2.99%
same,inhibition at 10 µM,[2],18.7 ± 9.78%
same,inhibition at 10 µM,[3],24.5 ± 1.37%
same,inhibition at 10 µM,[4],13.9 ± 0.92%
"Cn1c(COc2ccc(/C=N/c3ccc(Cl)c(C(F)(F)F)c3)cc2)nc2ccccc2c1=O [5p, (E)-2-((4-(((4-chloro-3-(trifluoromethyl)phenyl)imino)methyl)phenoxy)methyl)-3-methylquinazolin-4(3H)-one]",melting point,,163 to 164 °C
same,inhibition at 1 µM,[1],4.32 ± 1.92%
same,inhibition at 10 µM,[2],15.6 ± 2.66%
same,inhibition at 10 µM,[3],17.5 ± 2.67%
same,inhibition at 10 µM,[4],22.6 ± 1.28%
"COc1cc2ncnc(Nc3ccc(F)c(Cl)c3)c2cc1OCCCN1CCOCC1 [Gefitinib, reference compound]",Percentage of cells in G0/G1,"[5]; A549, 5 μM",58.50%
same,Percentage of cells in S,"[5]; A549, 5 μM",12.03%
same,Percentage of cells in G0/G1,"[5]; A549, 10 μM",62.15%
same,Percentage of cells in S,"[5]; A549, 10 μM",13.56%
N[C@@H](Cc1ccccc1)C(=O)Nn1c(-c2ccc(F)cc2)nc2ccc(F)cc2c1=O [II],IC50,[7],0.164 µM
COc1ccc(-c2nnc(-n3c(-c4ccccc4)nc4cc(Cl)ccc4c3=O)s2)cc1 [I],IC50,[7],0.32 µM

# — publication PMC7006757, “Design, synthesis and in vitro biological evaluation of quinazolinone derivatives as EGFR inhibitors for antitumor treatment” (Journal of Enzyme Inhibition and Medicinal Chemistry, 2020)
